Experimental data: paper PMC12693701, “Glucosinolate-Derived Metabolites from Barbarea vulgaris (Brassicaceae): Evaluation of Antimicrobial, Antioxidant, and Anti-Inflammatory Potentials” (Molecules, 2025)
Values after ≈ are worked out from the molar mass of the structure shown. Like-named read-outs stand apart in the source and are kept apart here.

How the values were obtained:
S. aureus = experiment: Microdilution MIC/MMC with resazurin; assay type: cell-based, Staphylococcus aureus; conditions: for MIC: Staphylococcus aureus
Method: (§1) The antimicrobial activity was evaluated against 15 microorganisms. This included 11 bacterial strains: four standard strains (Staphylococcus aureus ATCC 25923, Bacillus subtilis ATCC 6633, Bacillus pumilus NCTC 8241, and Escherichia coli ATCC 25922) and six clinical or environmental isolates (Staphylococcus aureus, Escherichia coli, Bacillus cereus, Proteus mirabilis, Salmonella enterica, and Klebsiella pneumoniae). One probiotic strain, Bifidobacterium animalis subsp. lactis was tested. In addition, four fungal strains, Candida albicans ATCC 10231, Trichoderma viride ATCC 13233, Aspergillus flavus ATCC 9170, and Fusarium solani ATCC 11712 were tested. The bacterial strains were kept in glycerol stock at −80 °C and the fungal strains in paraffin oil stock at 4 °C.
(§2) Bacterial and yeast suspensions were prepared using the direct colony method, as previously described by Andrews. The turbidity of the initial suspensions was adjusted to match the 0.5 McFarland standard using a densitometer (Biosan, Riga, Latvia), corresponding to approximately 10^8 colony-forming units (CFU)/mL for bacterial cells and 10^6 CFU/mL for yeast cells. Subsequently, 1:100 dilutions of the initial suspensions were prepared in sterile 0.85% saline. Fungal spore suspensions were obtained by gently harvesting spores from agar slopes containing mature mycelial growth. The collected spore suspensions were then diluted 1:1000 in sterile 0.85% saline prior to use.
(§3) Antimicrobial activity was evaluated by determining the minimum inhibitory concentration (MIC) and minimum microbicidal concentration (MMC) using the microdilution plate method with resazurin as an indicator [28]. In the 96-well plates, 100 μL of Mueller–Hinton broth (Torlak, Belgrade, Serbia) for bacterial testing and Sabouraud broth (Torlak, Belgrade, Serbia) for fungal testing were dispensed into each well. The compounds under investigation were initially dissolved in a 10% dimethyl sulfoxide (DMSO) solution, followed by dilution in sterile distilled water, resulting in a working compound solution containing 1% DMSO. A 100 μL aliquot of the stock solution of the tested compound was added to the first row, and twofold serial dilutions were then carried out using a multichannel pipette. The resulting concentration range was from 5 to 0.039 mg/mL. The inoculated microtiter plates were incubated at 37 °C for 24 h for bacteria, at 28 °C for 48 h for yeasts, and at 28 °C for 72 h for molds.
(§4) Each test also included growth control and sterility control. All tests were conducted in duplicate. MIC was defined as the lowest concentration of tested compounds that prevented resazurin color change from blue to pink. For molds, MIC values of the tested compound were determined as the lowest concentration that inhibited visible mycelia growth. MMC was determined by inoculation of the nutrient agar medium by plating […] of samples from wells, where no indicator color change was recorded. At the end of the incubation period, the lowest concentration with no growth (no colony) was defined as MMC.
(§5) Doxycycline, ampicillin and amphotericin B (- Sigma-Aldrich, St. Louis, MO, USA) and ketoconazole (Hemofarm A.D., Vršac, Serbia) were dissolved in a nutrient liquid medium. Doxycycline is a broad-spectrum antibiotic effective against both aerobic and anaerobic Gram-positive and Gram-negative bacteria. Ampicillin, a beta-lactam antibiotic, primarily targets Gram-positive bacteria but also some Gram-negative strains. Amphotericin B is an antifungal drug often used for serious systemic fungal infections and is one of the effective treatments for fungal infections caused by Aspergillus sp. Ketoconazole is an antifungal agent used to inhibit the growth of Candida species.

S. aureus ATCC 25923 = experiment: Microdilution MIC/MMC with resazurin; assay type: cell-based, Staphylococcus aureus; conditions: for MIC: Staphylococcus aureus, ATCC25923
Method: as §1, §2, §3, §4, §5

B. subtilis ATCC 6633 = experiment: Microdilution MIC/MMC with resazurin; assay type: cell-based, Bacillus subtilis; conditions: for MIC: Bacillus subtilis, ATCC6633
Method: as §1, §2, §3, §4, §5

T. viride ATCC 13233 = experiment: Microdilution MIC/MMC; assay type: cell-based, Trichoderma viride
Method: as §1, §2, §3, §4, §5

P. mirabilis = experiment: Inhibition of biofilm formation (crystal violet); assay type: cell-based, Proteus mirabilis; conditions: for BIC50: biofilm coverage reduced by 50%; for BIC90: biofilm coverage reduced by 90%
Method: The procedure involved preparing 96-well microtiter plates (Sarstedt, Nümbrecht, Germany) by adding 100 μL of Mueller-Hinton nutrient broth to each well. A 10 μL aliquot of bacterial suspension (adjusted to 1.0 McFarland for Gram-positive bacteria and 0.5 McFarland for Gram-negative bacteria) was added to the wells. The plates were then incubated at 37 °C for 48 h to allow biofilm formation. After incubation, the wells were washed twice with 200 μL of sterile 0.85% saline to remove non-adherent and weakly adherent cells. Biofilms formed by the adherent bacteria were fixed with 100 μL of methanol until fully evaporated. The biofilms were then stained using 0.1% (w/v) crystal violet (Fluka Chemie AG, Buchs, Switzerland) and left at room temperature for 20 min. After staining, excess dye was washed off with deionized water, followed by 96% ethanol. Controls included wells containing only nutrient broth to check for sterility and nonspecific binding. Background absorbance from the sterile medium, fixative, and dye was subtracted from the OD readings of the test samples. All experiments were performed in triplicate.
To assess the inhibition of biofilm formation, 96-well microtiter plates (Sarstedt, Nümbrecht, Germany) were prepared by dispensing 100 μL of Mueller-Hinton broth into each well. From stock solutions of tested compounds (at 10 mg/mL), 100 μL was added to the first row of the plate, followed by twofold serial dilutions (from 5 to 0.039 mg/mL) using a multichannel pipette (Eppendorf AG, Hamburg, Germany). Subsequently, 10 μL of fresh bacterial suspension (adjusted to 0.5 McFarland for Gram-negative and 1.0 McFarland for Gram-positive bacteria) was added to each well. The plates were incubated at 37 °C for 48 h. After incubation, the contents of the wells were carefully removed by tapping, and the remainder of the experiment was conducted following the procedure described above.
Controls consisted of wells containing only broth or broth with the tested compounds to assess sterility and nonspecific binding. Background absorbance was subtracted from test readings as described earlier. All experiments were performed in triplicate, and tetracycline (Sigma-Aldrich, St. Louis, MO, USA), dissolved in nutrient broth, was used as a reference compound.

E. coli = experiment: Microdilution MIC/MMC with resazurin; assay type: cell-based, Escherichia coli; conditions: E. coli isolate, compounds 1–8
Method: as §1, §2, §3, §4, §5

E. coli ATCC 25922 = experiment: Microdilution MIC/MMC with resazurin; assay type: cell-based, Escherichia coli; conditions: for MIC: Escherichia coli, ATCC25922
Method: as §1, §2, §3, §4, §5

[1] = ABTS radical scavenging assay; conditions: mean ± SD
Method: The ABTS radical cation solution was prepared following the previously described protocol. Different concentrations of the analyzed samples were prepared in DMSO. The test samples were prepared following the specified procedure: 20 µL of sample was combined with 980 µL of methanol, followed by the addition of 1000 µL of ABTS solution. Absorbance was measured at 734 nm. All measurements were performed in triplicate.

[2] = S. aureus isolate, compounds 1–8
[3] = S. aureus isolate, compounds 1–8, read-out: MIC
[4] = S. aureus ATCC 25923, compounds 1–8
[5] = S. aureus ATCC 25923, compounds 1–8, read-out: MIC
[6] = B. subtilis ATCC 6633, compounds 1–8
[7] = B. subtilis ATCC 6633, compounds 1–8, read-out: MIC
[8] = T. viride ATCC 13233, compounds 1–8
[9] = Trichoderma viride, ATCC13233, T. viride ATCC 13233, compounds 1–8, read-out: MIC
[10] = Escherichia coli, read-out: MIC
[11] = E. coli ATCC 25922, compounds 1–8
[12] = E. coli ATCC 25922, compounds 1–8, read-out: MIC

Row | Structure (SMILES) | MMC (S. aureus; [2]) [mg/mL] | MIC (S. aureus; [3]) [µg/mL] | MMC (S. aureus ATCC 25923; [4]) [mg/mL] | MIC (S. aureus ATCC 25923; [5]) [µg/mL] | MMC (B. subtilis ATCC 6633; [6]) [mg/mL] | MIC (B. subtilis ATCC 6633; [7]) [µg/mL] | MMC (T. viride ATCC 13233; [8]) [mg/mL] | MIC (T. viride ATCC 13233; [9]) [µg/mL] | BIC50 (P. mirabilis) [µg/mL] | BIC90 (P. mirabilis) [µg/mL] | MMC (E. coli) [mg/mL] | MIC (E. coli; [10]) [µg/mL] | MMC (E. coli ATCC 25922; [11]) [mg/mL] | MIC (E. coli ATCC 25922; [12]) [µg/mL] | ABTS Scavenging Ability ([1]; 25 µM) [%] | ABTS Scavenging Ability ([1]; 50 µM) [%] | ABTS Scavenging Ability ([1]; 100 µM) [%] | also measured
1 | S=C1NCC(c2ccccc2)O1 (racemic) [Compound 4, rac-5-Phenyl-1,3-oxazolidine-2-thione] | 1.25 | 1250 (≈ 6.97 mM) | 2.5 | 1250 (≈ 6.97 mM) | 5 | 2500 (≈ 13.9 mM) | 2.5 | 2500 (≈ 13.9 mM) | 3170 | >5000 | 5 | 2500 (≈ 13.9 mM) | 5 | 2500 (≈ 13.9 mM) | 0.9 ± 0.1 | 1.6 ± 0.9 | 2.5 ± 0.3 | –
2 | CSC(=S)NCCc1ccccc1 [Compound 1, Methyl phenethylcarbamodithioate] | 5 | 5000 (≈ 23.7 mM) | 5 | 5000 (≈ 23.7 mM) | >5 | 2500 (≈ 11.8 mM) | 1.25 | 625 (≈ 2.96 mM) | – | – | 5 | 2500 (≈ 11.8 mM) | 1.25 | 1250 (≈ 5.91 mM) | 1.7 ± 1.1 | 2.2 ± 1.2 | 2.6 ± 0.8 | –
3 | CSC(=S)NCCc1ccc(O)cc1 [Compound 2, methyl-4-hydroxyphenylethyl dithiocarbamate] | 0.312 | 312 (≈ 1.37 mM) | 0.156 | 156 (≈ 0.686 mM) | 1.25 | 78 (≈ 0.343 mM) | 0.312 | 156 (≈ 0.686 mM) | 1158 | 4500 | 0.312 | 312 (≈ 1.37 mM) | 0.312 | 312 (≈ 1.37 mM) | 7.6 ± 1.0 | 13.4± 0.9 | 13.4 ± 0.8 | –
4 | O=C(O)C1CSC(=S)N1 (stereo not drawn) [Compound 3, 2-Thioxothiazolidine-4-carboxylic Acid] | 0.312 | 156 (≈ 0.956 mM) | 0.625 | 625 (≈ 3.83 mM) | 5 | 2500 (≈ 15.3 mM) | 5 | 2500 (≈ 15.3 mM) | 3420 | >5000 | 5 | 1250 (≈ 7.66 mM) | 1.25 | 625 (≈ 3.83 mM) | 1.2 ± 0.3 | 1.9 ± 1.2 | 2.6 ± 0.7 | –
5 | S=C1NC[C@H](c2ccccc2)O1 [Compound 5, (S)-5-phenyl-1,3-oxazolidine-2-thione] | >5 | > 5000 | >5 | 5000 (≈ 27.9 mM) | >5 | > 5000 | 5 | 5000 (≈ 27.9 mM) | – | – | 5 | 5000 (≈ 27.9 mM) | 5 | 5000 (≈ 27.9 mM) | 6.6 ± 0.2 | 12.3 ± 0.8 | 19.1 ± 0.6 | –
6 | O=C1NCC(c2ccccc2)S1 (stereo not drawn) [Compound 6, 5-phenyl-1,3-thiazolidin-2-one] | >5 | > 5000 | >5 | > 5000 | >5 | > 5000 | >5 | > 5000 | – | – | >5 | > 5000 | >5 | > 5000 | 2.6 ± 0.7 | 3.9 ± 1.2 | 5.1 ± 0.9 | –
7 | O=C1NCC(c2ccccc2)O1 (stereo not drawn) [Compound 7, 5-Phenyl-1,3-oxazolidin-2-one] | 5 | 2500 (≈ 15.3 mM) | 5 | 5000 (≈ 30.6 mM) | 5 | 5000 (≈ 30.6 mM) | 2.5 | 1250 (≈ 7.66 mM) | 3100 | 4754 | 2.5 | 1250 (≈ 7.66 mM) | 2.5 | 1250 (≈ 7.66 mM) | 1.3 ± 0.1 | 2.7 ± 1.0 | 3.9 ± 0.4 | –
8 | Oc1ccc(CCN=C=S)cc1 [Compound 8, 2-(4-hydroxyphenyl)ethyl isothiocyanate] | 0.312 | – | 0.625 | – | >5 | – | <0.039 | – | 1428 | 2400 | 0.625 | – | 0.312 | – | 2.9 ± 1.3 | 6.8 ± 1.1 | 11.9 ± 0.8 | MIC (S. aureus): 78 µg/mL (≈ 0.435 mM); MIC (S. aureus ATCC 25923): 156 µg/mL (≈ 0.87 mM); MIC (B. subtilis ATCC 6633): 312 µg/mL (≈ 1.74 mM); MIC (T. viride ATCC 13233; [8]): <39 µg/mL; MIC (T. viride ATCC 13233; Trichoderma viride, ATCC13233): < 39 µg/mL; MIC (E. coli): <39 µg/mL; MIC (E. coli; Escherichia coli): 39 µg/mL (≈ 0.218 mM); MIC (E. coli ATCC 25922): 78 µg/mL (≈ 0.435 mM)
